This note sets out measurements from PMC5856786, “A DHODH inhibitor increases p53 synthesis and enhances tumor cell killing by p53 degradation blockage” (Nature Communications, 2018).

In experiment [1] the target is T1, recombinant human DHODH (Homo sapiens, UniProt Q02127). Description: Kinetic DHODH enzyme assay (3,4-dimethoxy-5-methyl-p-benzoquinone, DCIP). The class given is biochemical. Also noted: made in house. The conditions noted are these: Fig. 5a; average of three independent repeats ± SD. Here is the method:
In Fig. 5a enzyme assays were optimized and performed with 6 nM recombinant human DHODH prepared as described. The reaction mixture for these kinetic assays consisted of 1 mM DL-dihydroorotic acid, 100 µM 3,4-dimethoxy-5-methyl-p-benzoquinone (#D9150, Sigma-Aldrich), and 100 µM DCIP in enzyme buffer. A stock solution of 20 mM DCIP was prepared in enzyme buffer and filtered through filter paper (20–25 μm pore size) just before use. Loss in absorbance by DCIP was measured at 595 nm at RT in a stepped time course (8 × 2 min, 8 × 3 min, 6 × 5 min). […] Therefore, for each concentration of inhibitor tested, a value for DHODH’s Vmax was estimated by linear regression within this time frame.
Target sequence in this assay (Q02127 29-395 limits assumed): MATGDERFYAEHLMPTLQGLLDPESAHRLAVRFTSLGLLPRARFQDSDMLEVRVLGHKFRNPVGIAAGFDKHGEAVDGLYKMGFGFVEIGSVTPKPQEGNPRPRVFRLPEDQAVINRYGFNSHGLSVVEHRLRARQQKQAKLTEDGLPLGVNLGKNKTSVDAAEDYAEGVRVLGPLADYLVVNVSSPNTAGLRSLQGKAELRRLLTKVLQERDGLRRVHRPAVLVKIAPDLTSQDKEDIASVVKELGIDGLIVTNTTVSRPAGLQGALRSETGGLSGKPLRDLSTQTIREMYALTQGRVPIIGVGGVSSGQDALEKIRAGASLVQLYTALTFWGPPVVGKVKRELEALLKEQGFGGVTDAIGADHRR

Experiment [2] relates to ARN8 cells. Description: SRB growth/viability assay, ARN8. The conditions noted are these: ARN8; Fig. 4e. The class given is cell-based, human. Here is the method:
SRB assays measuring protein content were performed in 96-well plates as previously described.

Experiment [3] has as its target T1, recombinant human DHODH. Description: Endpoint DHODH enzyme assay (coenzyme Q10, DCIP). In kind it is biochemical. Also noted: purchased Prospecbio ENZ-642. The conditions noted are these: compound at 10 µM; Supplementary Table 5, 20,000 compound library. Here is the method:
In Supplementary Tables 5 and 6, endpoint assays were performed with 10 nM recombinant human DHODH (#ENZ-642, Prospecbio). The reaction mixture consisted of 624.6 µM DL-dihydroorotic acid, 66.4 µM coenzyme Q10, 66.4 µM 2,6-dichlorophenolindophenol sodium salt (DCIP) (all reagents purchased from Sigma-Aldrich) in enzyme buffer (50 mM Tris-HCl, pH 8.0, 0.1% Triton X-100, 150 mM KCl). Loss in absorbance by DCIP was measured at 595 nm after incubation at RT for 60 min.
Target sequence in this assay (Q02127 31-395 limits assumed): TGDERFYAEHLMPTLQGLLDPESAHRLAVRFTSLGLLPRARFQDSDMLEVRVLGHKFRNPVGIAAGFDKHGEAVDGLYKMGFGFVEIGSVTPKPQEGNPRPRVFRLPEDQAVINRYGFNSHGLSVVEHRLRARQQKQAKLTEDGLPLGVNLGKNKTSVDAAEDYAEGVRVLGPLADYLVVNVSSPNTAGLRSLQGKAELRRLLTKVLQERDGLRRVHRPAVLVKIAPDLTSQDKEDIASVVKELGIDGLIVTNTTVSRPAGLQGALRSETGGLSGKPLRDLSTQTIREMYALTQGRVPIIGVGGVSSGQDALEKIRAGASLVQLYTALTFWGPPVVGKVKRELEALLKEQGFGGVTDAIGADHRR

Bounds are passed on as bounds.

Usually IC50 stands for the point on the concentration scale where inhibition reaches its midpoint. For `O=C(N[C@H]1CCCc2c1cnn2-c1ccccc1F)c1onc2c1CCCC2` [(S)-HZ05], the concentration for half-maximal inhibition (IC50) in experiment [1] is 6.7 ± 0.67 µM.

In the case of `O=C(NC1CCCc2c1cnn2-c1ccc(F)cc1F)c1onc2c1CCCC2` (stereo not shown) [HZ02], the 50% inhibitory concentration (IC50) in experiment [1] stood at 0.289 ± 0.046 µM.

Take `Cc1ccc(-n2ncc3c2CC(C)(C)CC3NC(=O)c2ccccn2)cc1` (stereo not shown) [HZ25]: in experiment [1], the concentration for half-maximal inhibition (IC50) was more than 10 µM.

`Cc1c(-c2ccc(-c3ccccc3F)cc2)nc2ccc(F)cc2c1C(=O)O` [brequinar, reference compound]: in experiment [2], the “effects on ARN8 growth and p53-dependent transcription ± uridine compared with HZ00” value is “phenocopied the effects of HZ00”.

A word on the remaining activity: it is the signal under treatment as a percentage of the control signal. `O=C(Nc1nc2c(s1)CCCC2)C(=O)c1c[nH]c2ccccc12` [compound 7690424, 2-(1H-indol-3-yl)-2-oxo-N-(4,5,6,7-tetrahydro-1,3-benzothiazol-2-yl)acetamide]: the remaining activity at 10 µM in experiment [3] was determined as 11%.

Take `CC1=C(C(=O)Nc2ccc(F)cc2)C(c2ccccc2OCc2ccccc2)C2=C(CCCC2=O)N1` (stereo not shown) [compound 7705624, 4-[2-(benzyloxy)phenyl]-N-(4-fluorophenyl)-2-methyl-5-oxo-1,4,5,6,7,8-hexahydro-3-quinolinecarboxamide]: the “remaining DHODH activity (%) Average” value in experiment [3] was 104.27%.

As to `CCOC(=O)C1=C(C)NC2=C(C(=O)CC(c3ccco3)C2)C1c1cccs1` (stereo not shown) [compound 7706732, ethyl 7-(2-furyl)-2-methyl-5-oxo-4-(2-thienyl)-1,4,5,6,7,8-hexahydro-3-quinolinecarboxylate], in experiment [3], the “remaining DHODH activity (%) Average” value is on record as 95.89%.

As for `CCOc1cc(C=Cc2ccc3cccc(OC(=O)CC)c3n2)ccc1OC(=O)CC` [compound 7706999, 2-{2-[3-ethoxy-4-(propionyloxy)phenyl]vinyl}-8-quinolinyl propionate], in experiment [3], the remaining activity at 10 µM came to 98.2%.

With `Cc1ccc(CSCC(=O)Nc2ccccc2C(=O)O)cc1` [compound 7723007, 2-({[(4-methylbenzyl)thio]acetyl}amino)benzoic acid], the remaining activity at 10 µM in experiment [3] is -8.22%.

As to `O=C(Nc1cc(C(F)(F)F)cc(C(F)(F)F)c1)c1c(F)c(F)c(F)c(F)c1F` [compound 7739721, N-[3,5-bis(trifluoromethyl)phenyl]-2,3,4,5,6-pentafluorobenzamide], the remaining activity at 10 µM in experiment [3] stood at 98.2%.

For the compound `Oc1ccccc1-c1nc(C=Cc2cccs2)n[nH]1` [compound 7776857, 2-{3-[2-(2-thienyl)vinyl]-1H-1,2,4-triazol-5-yl}phenol], the remaining activity at 10 µM in experiment [3] is 77.3%.

Regarding `Cc1cc(O)ccc1NC(=O)c1ccc(-c2ccccc2)cc1` [compound 7782544, N-(4-hydroxy-2-methylphenyl)-4-biphenylcarboxamide], in experiment [3], the remaining activity at 10 µM is 73.5%.

For the compound `NC(=O)c1ccccc1NC(=O)Nc1ccccc1C(F)(F)F` [compound 7794325, 2-[({[2-(trifluoromethyl)phenyl]amino}carbonyl)amino]benzamide], the remaining activity at 10 µM in experiment [3] was determined as 92.2%.

For `CC(C)Oc1ccccc1C1CC(=O)Nc2cc3c(cc21)OCCO3` (stereo not shown) [compound 7800701, 9-(2-isopropoxyphenyl)-2,3,8,9-tetrahydro[1,4]dioxino[2,3-g]quinolin-7(6H)-one], in experiment [3], the remaining activity at 10 µM is 88.1%.

For the compound `COC(=O)c1cccc(NC(=S)Nc2cc(Cl)ccc2OC)c1` [compound 7801595, methyl 3-({[(5-chloro-2-methoxyphenyl)amino]carbonothioyl}amino)benzoate], the remaining activity at 10 µM in experiment [3] was 100%.

In the case of `O=C1CC(c2ccccc2OCc2ccccc2)c2cc3c(cc2N1)OCCO3` (stereo not shown) [compound 7834586, 9-[2-(benzyloxy)phenyl]-2,3,8,9-tetrahydro[1,4]dioxino[2,3-g]quinolin-7(6H)-one], the remaining activity at 10 µM in experiment [3] stood at 103%.

As for `Cc1cc(=O)oc2cc(NC(=S)N3c4ccccc4CC3C)ccc12` (stereo not shown) [compound 7841649, 2-methyl-N-(4-methyl-2-oxo-2H-chromen-7-yl)-1-indolinecarbothioamide], in experiment [3], the remaining activity at 10 µM is 3.65%.

For `Cc1ccc(-c2nc(CN3CCCCC3c3nccs3)c(C)o2)o1` (stereo not shown) [compound 47561416, 1-{[5-methyl-2-(5-methyl-2-furyl)-1,3-oxazol-4-yl]methyl}-2-(1,3-thiazol-2-yl)piperidine], in experiment [3], the remaining activity at 10 µM came to 86.3%.

As for `COc1ccc(-c2nc(CN3CCCC3c3ccccc3OC)c(C)o2)cc1C` (stereo not shown) [compound 47870602, 2-(4-methoxy-3-methylphenyl)-4-{[2-(2-methoxyphenyl)-1-pyrrolidinyl]methyl}-5-methyl-1,3-oxazole], the “remaining DHODH activity (%) Average” value in experiment [3] is given as 10.68%.

In the case of `CC(C)c1nc(C(=O)N2CCC3(CCCN(CCc4ccccc4)C3)C2)cs1` (stereo not shown) [compound 51157786, 2-[(2-isopropyl-1,3-thiazol-4-yl)carbonyl]-7-(2-phenylethyl)-2,7-diazaspiro[4.5]decane], the remaining activity at 10 µM in experiment [3] is -5.48%.

Take `Cc1ccccc1-c1noc(-c2ccc(N3CCC[C@H]3CO)nc2)n1` [compound 54631106, ((2S)-1-{5-[3-(2-methylphenyl)-1,2,4-oxadiazol-5-yl]-2-pyridinyl}-2-pyrrolidinyl)methanol]: the “remaining DHODH activity (%) Average” value in experiment [3] was 5.94%.

`CCC(C)Nc1ccc(-c2nc(-c3cccc(OC)c3OC)no2)cn1` (stereo not shown) [compound 55410102, N-(sec-butyl)-5-[3-(2,3-dimethoxyphenyl)-1,2,4-oxadiazol-5-yl]-2-pyridinamine]: the remaining activity at 10 µM in experiment [3] was 2.28%.

Turning to `CCN(CC)c1ccc(-c2nc(-c3cccc(OC)c3OC)no2)cn1` [compound 57235883, 5-[3-(2,3-dimethoxyphenyl)-1,2,4-oxadiazol-5-yl]-N,N-diethyl-2-pyridinamine], the remaining activity at 10 µM in experiment [3] came to 9.4%.

Regarding `COc1cccc(-c2noc(-c3ccc(N4CCCCC4)nc3)n2)c1OC` [compound 57999135, 5-[3-(2,3-dimethoxyphenyl)-1,2,4-oxadiazol-5-yl]-2-(1-piperidinyl)pyridine], the remaining activity at 10 µM in experiment [3] was 16.7%.

With `COc1ccc(C2c3[nH]c4ccccc4c3CCN2Cc2ccoc2)c(F)c1` (stereo not drawn) [compound 76026685, 1-(2-fluoro-4-methoxyphenyl)-2-(3-furylmethyl)-2,3,4,9-tetrahydro-1H-beta-carboline], the remaining activity at 10 µM in experiment [3] turned out to be 88.5%.

On to `COc1cccc(-c2noc(-c3ccc(N4CCCC(O)C4)nc3)n2)c1OC` (stereo not shown) [compound 78928129, 1-{5-[3-(2,3-dimethoxyphenyl)-1,2,4-oxadiazol-5-yl]-2-pyridinyl}-3-piperidinol], for which, in experiment [3], the remaining activity at 10 µM came out at 42.3%.

In the case of `COc1ccc(C2c3[nH]c4ccccc4c3CCN2Cc2nccs2)cc1C` (stereo not drawn) [compound 90739158, 1-(4-methoxy-3-methylphenyl)-2-(1,3-thiazol-2-ylmethyl)-2,3,4,9-tetrahydro-1H-beta-carboline], the “remaining DHODH activity (%) Average” value in experiment [3] stood at 91.88%.

`C/C(O)=C(\C#N)C(=O)Nc1ccc(C(F)(F)F)cc1` [teriflunomide, reference compound]: the “effects on ARN8 growth and p53-dependent transcription ± uridine compared with HZ00” value in experiment [2] is on record as “phenocopied the effects of HZ00”.
